Laboratory results as given in patent publication EP1433789A1, “Pyrrolopyrazines and their use as selective apoptosis inducers” (Aponetics AG, priority 2002, dated 2004).

Assays:
[1] = tested on: A20; experiment: AnnexinV/7-AAD staining; assay type: cell-based, mouse; conditions: A20, 10 µM, 24 h treatment
Procedure: (§1) Adherent cells (1 - 2*10^5) are 24 h prior to compound treatment seeded into 24 well tissue culture plates. Suspension cells are pipetted into P-tubes immediately before treatment. Test compounds are added leading to a final concentrations of 10 µM. After 24 h treatment cells are harvested (in case of adherent cells by trypsinization) and transferred to FACS tubes (BD Biosciences). After centrifugation and removal of the supernatant, 100 µl complete medium containing AnnexinV-GST (10 µg) is added, mixed and incubated at 4°C for 30 minutes. Subsequently, the cells are washed once with medium and incubated with 100 µl anti-GST Alexa 488 (Molecular Probes A-11131) in medium diluted 1:500 for 30 minutes at 4°C. Then, cells are washed once and stained with 1 µg/ml 7-aminoactinomycin D (7-AAD) (Molecular Probes A-1310) in 250 µl medium and analyzed on the FACSCalibur™. AnnexinV is measured in FL1 whereas 7-AAD is measured in FL3. In Table 5 the percentage of positively stained cells after treatment with the respective compounds are indicated. The following scores are used: Score 0 relates to less than 10%, score 1 relates to more than 10% but less than 50% and score 2 relates to more than 50% positivity.

[2] = tested on: HeLa; experiment: Hoechst 33342 nuclear staining (Table 3); assay type: cell-based, human; parameters: key: 0 relating to no activity; 1 relating to weak activity comprising less than 50% of the cells; score 2 relating to strong activity comprising more than 50% of the cells
Procedure: (§2) This assay is performed in 96 well tissue culture plates. Appropriate number of cells (adherent cells: 3 - 5*10^3, suspension cells: 8 - 10*10^3) are being seeded out in 80 µl complete medium. Adherent cells are incubated for 24 h for proper spreading out before addition of test compounds while suspension cells are immediately treated with test compounds after seeding out. The test compounds are added in 20 µl complete medium containing max 5% DMSO. The final compound concentrations in the assays are 10 µM, 3 µM,1 µM and 0.3 µM, respectively. After 24 h or 48 h incubation at culture conditions, 10 µl medium containing Hoechst 33342 dye (Sigma B-2261) at 2-5 µg/ml are added to each well. The assay plates are then further incubated for 30 minutes and subsequently analyzed with a standard inverted fluorescence microscope. The readout allows the determination of the fraction of apoptotic nuclei as well as other morphological criteria specific for apoptosis as a function of the treatment. The following scores are used: 0 relating to no activity, 1 relating to weak activity comprising less than 50% of the cells and score 2 relating to strong activity comprising more than 50% of the cells.

[3] = tested on: K562; experiment: Hoechst 33342 nuclear staining (Table 3); assay type: cell-based, human; parameters: key: 0 relating to no activity; 1 relating to weak activity comprising less than 50% of the cells; score 2 relating to strong activity comprising more than 50% of the cells
Procedure: as §2

[4] = tested on: Jurkat; experiment: Hoechst 33342 nuclear staining (Table 3); assay type: cell-based, human; parameters: key: 0 relating to no activity; 1 relating to weak activity comprising less than 50% of the cells; score 2 relating to strong activity comprising more than 50% of the cells
Procedure: as §2

[5] = tested on: KB; experiment: Hoechst 33342 nuclear staining (Table 3); assay type: cell-based, human; parameters: key: 0 relating to no activity; 1 relating to weak activity comprising less than 50% of the cells; score 2 relating to strong activity comprising more than 50% of the cells
Procedure: as §2

[6] = tested on: HeLa; experiment: AnnexinV/7-AAD staining; assay type: cell-based, human; conditions: 10 µM, 24 h treatment
Procedure: as §1

[7] = tested on: Jurkat; experiment: AnnexinV/7-AAD staining; assay type: cell-based, human; conditions: 10 µM, 24 h treatment
Procedure: as §1

[8] = tested on: Ramos; experiment: AnnexinV/7-AAD staining; assay type: cell-based, human; conditions: 10 µM, 24 h treatment
Procedure: as §1

[9] = tested on: A20; experiment: Hoechst 33342 nuclear staining (Table 3); assay type: cell-based, mouse; parameters: key: 0 relating to no activity; 1 relating to weak activity comprising less than 50% of the cells; score 2 relating to strong activity comprising more than 50% of the cells
Procedure: as §2

[10] = tested on: Ramos; experiment: Hoechst 33342 nuclear staining (Table 3); assay type: cell-based, human; parameters: key: 0 relating to no activity; 1 relating to weak activity comprising less than 50% of the cells; score 2 relating to strong activity comprising more than 50% of the cells; conditions: 24h
Procedure: as §2

SMILES	percentage of positively stained cells (AnnexinV/7-AAD staining) [1]	Hoechst 33342 nuclear staining ([2]; 24h, conc 0.3 (µM))	Hoechst 33342 nuclear staining ([2]; 24h, conc 1 (µM))	Hoechst 33342 nuclear staining ([2]; 24h, conc 3 (µM))	Hoechst 33342 nuclear staining ([2]; 24h, conc 10 (µM))	Hoechst 33342 nuclear staining ([2]; 48h, conc 0.3 (µM))	Hoechst 33342 nuclear staining ([2]; 48h, conc 1 (µM))	Hoechst 33342 nuclear staining ([2]; 48h, conc 3 (µM))	Hoechst 33342 nuclear staining ([2]; 48h, conc 10 (µM))	Hoechst 33342 nuclear staining ([3]; K562, 24h, conc 0.3 (µM))	Hoechst 33342 nuclear staining ([3]; K562, 24h, conc 1 (µM))	Hoechst 33342 nuclear staining ([3]; K562, 24h, conc 3 (µM))	Hoechst 33342 nuclear staining ([3]; K562, 48h, conc 0.3 (µM))	Hoechst 33342 nuclear staining ([3]; K562, 48h, conc 1 (µM))	Hoechst 33342 nuclear staining ([3]; K562, 48h, conc 3 (µM))	Hoechst 33342 nuclear staining ([3]; K562, 48h, conc 10 (µM))	Hoechst 33342 nuclear staining ([4]; 24h, conc 0.3 (µM))	Hoechst 33342 nuclear staining ([4]; 24h, conc 1 (µM))	Hoechst 33342 nuclear staining ([4]; 24h, conc 3 (µM))	Hoechst 33342 nuclear staining ([4]; 24h, conc 10 (µM))	further results
CC1(C)Cc2ccccc2-c2cc3nc4ccccc4nc3n21 [No. 1, 6,6-Dimethyl-5,6-dihydro-6a,7,12-triaza-dibenzo[a,h]fluorene]	0 (Score 0 relates to less than 10%)	0	0	0	0	0	2 (score 2 relating to strong activity comprising more than 50% of the cells)	2 (score 2 relating to strong activity comprising more than 50% of the cells)	2 (score 2 relating to strong activity comprising more than 50% of the cells)	0	0	0	0	1 (1 relating to weak activity comprising less than 50% of the cells)	2 (score 2 relating to strong activity comprising more than 50% of the cells)	2 (score 2 relating to strong activity comprising more than 50% of the cells)	1 (1 relating to weak activity comprising less than 50% of the cells)	1 (1 relating to weak activity comprising less than 50% of the cells)	2 (score 2 relating to strong activity comprising more than 50% of the cells)	2 (score 2 relating to strong activity comprising more than 50% of the cells)	Hoechst 33342 nuclear staining ([4]; 48h, conc 0.3 (µM)): 2 (score 2 relating to strong activity comprising more than 50% of the cells); Hoechst 33342 nuclear staining ([4]; 48h, conc 1 (µM)): 2 (score 2 relating to strong activity comprising more than 50% of the cells); Hoechst 33342 nuclear staining ([4]; 48h, conc 3 (µM)): 2 (score 2 relating to strong activity comprising more than 50% of the cells); Hoechst 33342 nuclear staining ([4]; 48h, conc 10 (µM)): 2 (score 2 relating to strong activity comprising more than 50% of the cells); Hoechst 33342 nuclear staining ([5]; 24h, conc 0.3 (µM)): 0; Hoechst 33342 nuclear staining ([5]; 24h, conc 1 (µM)): 0; Hoechst 33342 nuclear staining ([5]; 24h, conc 3 (µM)): 0; Hoechst 33342 nuclear staining ([5]; 24h, conc 10 (µM)): 0; Hoechst 33342 nuclear staining ([5]; 48h, conc 0.3 (µM)): 0; Hoechst 33342 nuclear staining ([5]; 48h, conc 1 (µM)): 0; Hoechst 33342 nuclear staining ([5]; 48h, conc 3 (µM)): 0; Hoechst 33342 nuclear staining ([5]; 48h, conc 10 (µM)): 0; percentage of positively stained cells (AnnexinV/7-AAD staining) [6]: 1 (score 1 relates to more than 10% but less than 50%); percentage of positively stained cells (AnnexinV/7-AAD staining) [7]: 0 (Score 0 relates to less than 10%); percentage of positively stained cells (AnnexinV/7-AAD staining) [8]: 1 (score 1 relates to more than 10% but less than 50%)
CC1(C)Cc2ccccc2-c2c(C=O)c3nc4ccccc4nc3n21 [No. 3, 6,6-Dimethyl-5,6-dihydro-6a,7,12-triaza-dibenzo[a,h]fluorene-13-carbaldehyde]	1 (score 1 relates to more than 10% but less than 50%)	0	0	0	0	0	0	0	1 (1 relating to weak activity comprising less than 50% of the cells)	0	0	0	0	0	1 (1 relating to weak activity comprising less than 50% of the cells)	1 (1 relating to weak activity comprising less than 50% of the cells)	0	0	0	0	Hoechst 33342 nuclear staining ([9]; A20, 24h, conc 0.3 (µM)): 0; Hoechst 33342 nuclear staining ([9]; A20, 24h, conc 1 (µM)): 0; Hoechst 33342 nuclear staining ([9]; A20, 24h, conc 3 (µM)): 0; Hoechst 33342 nuclear staining ([9]; A20, 24h, conc 10 (µM)): 0; Hoechst 33342 nuclear staining ([9]; A20, 48h, conc 0.3 (µM)): 0; Hoechst 33342 nuclear staining ([9]; A20, 48h, conc 1 (µM)): 0; Hoechst 33342 nuclear staining ([9]; A20, 48h, conc 3 (µM)): 0; Hoechst 33342 nuclear staining ([9]; A20, 48h, conc 10 (µM)): 0; Hoechst 33342 nuclear staining ([3]; K562, 24h, conc 10 (µM)): 0; Hoechst 33342 nuclear staining ([4]; 48h, conc 0.3 (µM)): 0; Hoechst 33342 nuclear staining ([4]; 48h, conc 1 (µM)): 0; Hoechst 33342 nuclear staining ([4]; 48h, conc 3 (µM)): 0; Hoechst 33342 nuclear staining ([4]; 48h, conc 10 (µM)): 2 (score 2 relating to strong activity comprising more than 50% of the cells); Hoechst 33342 nuclear staining ([10]; conc 0.3 (µM)): 0; Hoechst 33342 nuclear staining ([10]; conc 1 (µM)): 0; Hoechst 33342 nuclear staining ([10]; conc 3 (µM)): 0; Hoechst 33342 nuclear staining ([10]; conc 10 (µM)): 0; percentage of positively stained cells (AnnexinV/7-AAD staining) [6]: 1 (score 1 relates to more than 10% but less than 50%); percentage of positively stained cells (AnnexinV/7-AAD staining) [7]: 2 (score 2 relates to more than 50% positivity); percentage of positively stained cells (AnnexinV/7-AAD staining) [8]: 2 (score 2 relates to more than 50% positivity)
